Test results reported in ChEMBL document CHEMBL4483862, “Open-source discovery of chemical leads for next-generation chemoprotective antimalarials” (2018).
pIC50: −log10 of the molar value.

Test system: Plasmodium berghei
Assay: Luciferase/luciferin-expressing antifolate-resistant parasites were used to infect a culture of HepG2 cells that were pre-incubated with compounds. Infected hepatocytes emit light due to the luciferase reaction. Assay results are presented as the percent inhibition of light emission compared to control. […]
Type: functional
Conditions: sporozoite; for IC90: read-out: LUCIFERASE INFECTION ASSAY - IC90
[1] = read-out: LUCIFERASE INFECTION ASSAY - IC50

Row | Compound | IC90 [µM] | pIC50 [1] | also measured
1 | CCOC(=O)c1c(C)[nH]c(C(=O)Nc2ccnn2Cc2ccc(Cl)cc2Cl)c1C | > 10 | – | pIC50 (PBLUC_HILL_SLOPE 1.6, PBLUC_R_SQUARED 0.586, read-out: LUCIFERASE INFECTION ASSAY - IC50): 5.40
2 | COc1ccc(NC(=O)c2ccc(NC(=O)c3nc4nccc(C)n4n3)cc2)cc1 | > 10 | < 5.00 | –
3 | CCOC(=O)C(c1ccc(Cl)cc1)N1CCN(C(=O)/C=C/c2ccc(OC)c(OC)c2)CC1 (stereo not given) | 3.62 | – | pIC50 (PBLUC_HILL_SLOPE 18.4, PBLUC_R_SQUARED 0.744, read-out: LUCIFERASE INFECTION ASSAY - IC50): 5.49
4 | CC(C)c1nc(NCC2CCCO2)c(C#N)c2c1CCCC2 (stereo not given) | > 11 | – | pIC50 (PBLUC_HILL_SLOPE 0.297, PBLUC_R_SQUARED 0.0572, read-out: LUCIFERASE INFECTION ASSAY - IC50): < 4.96
5 | CCOc1ccc(C2=NNC(=Nc3cccc(S(=O)(=O)N(C)C)c3)SC2)cc1 | 4.99 | – | pIC50 (FFLUC_HILL_SLOPE 1.45, FFLUC_R_SQUARED 0.572, HEPG2TOX_HILL_SLOPE 2.21, HEPG2TOX_R_SQUARED 0.976, PBLUC_HILL_SLOPE 3.43, PBLUC_R_SQUARED 0.708, read-out: LUCIFERASE INFECTION ASSAY - IC50): 5.58
6 | O=C(CNc1cccc(S(=O)(=O)N2CCOCC2)c1)N(C1CCCCC1)C1CCS(=O)(=O)C1 (stereo not given) | > 10 | < 5.00 | –
7 | CN(C)CCNc1ccnc2c(-c3ccccc3Oc3ccccc3)cnn12 | > 8.84 | – | pIC50 (PBLUC_HILL_SLOPE 1.31, PBLUC_R_SQUARED 0.651, read-out: LUCIFERASE INFECTION ASSAY - IC50): 5.29
8 | CCOC(=O)c1cc(C#N)c(SCC(=O)Nc2ccccc2CC)nc1C | > 10 | < 5.00 | –
9 | CC(C)n1ncc2c(C(=O)NCCCn3ccc4ccccc43)cc(C3CC3)nc21 | > 10 | < 5.00 | –
10 | COc1cc(OC)c(C(=O)N2CC=C(c3c[nH]c4ccccc34)CC2)cc1OC | > 10 | < 5.00 | –
11 | CN1CCN(c2ccc(-c3cn4c(-c5ccc6ncccc6c5)cnc4cn3)cn2)CC1 | 3.03 | – | pIC50 (HEPG2TOX_HILL_SLOPE 4.41, HEPG2TOX_R_SQUARED 0.745, PBLUC_HILL_SLOPE 17.7, PBLUC_R_SQUARED 0.338, read-out: LUCIFERASE INFECTION ASSAY - IC50): 5.57
12 | O=C(Nc1cccnc1)C1=COC2=NC(=O)N(Cc3ccccc3C(F)(F)F)CCN12 | > 10 | < 5.00 | –
13 | CCN(c1ccccc1)S(=O)(=O)c1ccc(NNC(=O)Nc2cccc3ccccc23)nc1 | > 10 | 5.06 | –
14 | Cc1ccc(C)c(-c2nn(CC(=O)c3cc(C)n(C)c3C)c(=O)c3ccccc23)c1 | > 10 | < 5.00 | –
15 | CCOc1ccc(/C=C2\CCCC3C2=NN(C(=O)C2(S(=O)(=O)c4ccccc4)CC2)C3c2ccc(OCC)cc2)cc1 (stereo not given) | > 10 | 5.25 | –
16 | O=C(Nc1ccccc1)Nc1ccc(Cl)cc1[N+](=O)[O-] | 5.21 | – | pIC50 (HEPG2TOX_HILL_SLOPE 12.3, HEPG2TOX_R_SQUARED 0.323, PBLUC_HILL_SLOPE 4.88, PBLUC_R_SQUARED 0.281, read-out: LUCIFERASE INFECTION ASSAY - IC50): 5.48
17 | O=C(CCN1CCN(c2ccccc2)CC1)NNC(=O)c1ccc(C(F)(F)F)cn1 | 7.86 | – | pIC50 (HEPG2TOX_HILL_SLOPE 7.92, HEPG2TOX_R_SQUARED 0.92, PBLUC_HILL_SLOPE 7.4, PBLUC_R_SQUARED 0.199, read-out: LUCIFERASE INFECTION ASSAY - IC50): 5.23
18 | CCc1sc2nc(SCc3cc(=O)n4cc(Br)ccc4n3)n(-c3cccc(OC)c3)c(=O)c2c1C | > 10 | < 5.00 | –
19 | O=C(Nc1ccc(F)cc1)C(Sc1nnc(-c2cccs2)[nH]1)c1ccccc1 (stereo not given) | > 10 | – | pIC50 (PBLUC_HILL_SLOPE 4.17, PBLUC_R_SQUARED 0.509, read-out: LUCIFERASE INFECTION ASSAY - IC50): 5.21
20 | COc1cc(/C=C(/C(=O)c2cccc(Cl)c2)c2nc3ccccc3[nH]2)ccc1OCc1ccccc1 | > 10 | – | pIC50 (HEPG2TOX_HILL_SLOPE 8.02, HEPG2TOX_R_SQUARED 0.115, read-out: LUCIFERASE INFECTION ASSAY - IC50): < 5.00
21 | CC(=O)c1cc2c(N)c(-c3nc(C(C)(C)C)no3)sc2nc1C | 3.91 | – | pIC50 (PBLUC_HILL_SLOPE 13.1, PBLUC_R_SQUARED 0.312, read-out: LUCIFERASE INFECTION ASSAY - IC50): 5.48
22 | Cc1ccccc1-c1ccnc2c1c(=O)[nH]c(=O)n2Cc1ccccc1 | > 9.61 | – | pIC50 (PBLUC_HILL_SLOPE 10.5, PBLUC_R_SQUARED 0.045, read-out: LUCIFERASE INFECTION ASSAY - IC50): < 5.02
23 | Cc1cc(C)c(CNC(=O)N(C)Cc2cn(-c3ccccc3)nc2-c2ccccc2)c(=O)[nH]1 | > 10 | < 5.00 | –

Row | Compound | IC90 [µM] | pIC50 [1] | also measured
24 | CCN(CC)C(=O)c1sc2nc(-c3ccccn3)nc(O)c2c1C | > 10 | < 5.00 | –
25 | Cc1cc2ncc(-c3ccnc(SCc4cccc(Cl)c4)n3)c(C)n2n1 | 8.63 | – | pIC50 (PBLUC_HILL_SLOPE 3.9, PBLUC_R_SQUARED 0.625, read-out: LUCIFERASE INFECTION ASSAY - IC50): 5.31
26 | Cc1noc(C)c1CCC(=O)Nc1nc2cc(C(F)(F)F)ccc2n1Cc1ccco1 | 3.57 | – | pIC50 (HEPG2TOX_HILL_SLOPE 1.36, HEPG2TOX_R_SQUARED 0.789, PBLUC_HILL_SLOPE 10.4, PBLUC_R_SQUARED 0.861, read-out: LUCIFERASE INFECTION ASSAY - IC50): 5.54
27 | CC(=O)Nc1ccc(Oc2ccnc3cc(Cl)ccc23)cc1 | > 10 | – | pIC50 (PBLUC_HILL_SLOPE 1.43, PBLUC_R_SQUARED 0.691, read-out: LUCIFERASE INFECTION ASSAY - IC50): 5.46
28 | CNc1snc(C)c1C(=O)NC(C)c1ccc(OC(F)F)cc1 (stereo not given) | 9.96 | 5.05 | –
29 | O=C(c1ccccc1)c1ccc(OCc2coc(-c3ccccc3)n2)cc1 | > 10 | < 5.00 | –
30 | CC(C)(C)C(=O)ONC(N)=CS(=O)(=O)c1ccc(Cl)cc1 | > 9.92 | < 5.00 | –
31 | O=C(Nc1ccc(Cl)cc1)c1cc(-c2ccccc2)c(C(F)(F)F)s1 | 6.06 | – | pIC50 (HEPG2TOX_HILL_SLOPE 3.44, HEPG2TOX_R_SQUARED 0.918, PBLUC_HILL_SLOPE 6.48, PBLUC_R_SQUARED 0.174, read-out: LUCIFERASE INFECTION ASSAY - IC50): 5.36
32 | CNc1nc2cnc(Nc3cccc(NC(C)=O)c3)cc2n1-c1cccc(F)c1 | > 10 | – | pIC50 (HEPG2TOX_HILL_SLOPE 2.07, HEPG2TOX_R_SQUARED 0.855, PBLUC_HILL_SLOPE 1.72, PBLUC_R_SQUARED 0.4, read-out: LUCIFERASE INFECTION ASSAY - IC50): 5.41
33 | CCc1ccc2nc(NC(=O)c3nccnc3N)sc2c1 | > 10 | – | pIC50 (HEPG2TOX_HILL_SLOPE 7.58, HEPG2TOX_R_SQUARED 0.761, PBLUC_HILL_SLOPE 15.5, PBLUC_R_SQUARED 0.446, read-out: LUCIFERASE INFECTION ASSAY - IC50): 5.03
34 | COc1ccc(-c2cc(C(=O)NNC(=S)NC3CC4CCC3C4)[nH]n2)cc1 (stereo not given) | > 10 | < 5.00 | –
35 | CC(=O)Nc1ccc(-c2cnc3ccc(-c4cccc(F)c4)nn23)cc1 | 3.53 | – | pIC50 (HEPG2TOX_HILL_SLOPE 8.87, HEPG2TOX_R_SQUARED 0.791, PBLUC_HILL_SLOPE 12.1, PBLUC_R_SQUARED 0.742, read-out: LUCIFERASE INFECTION ASSAY - IC50): 5.53
36 | C/C(=N\N1CCCCC1)c1ccccc1O | > 10 | < 5.00 | –
37 | Brc1ccc(-c2ccc(CN3CCNCC3)s2)cc1 | > 10 | – | pIC50 (HEPG2TOX_HILL_SLOPE 2.72, HEPG2TOX_R_SQUARED 0.0418, read-out: LUCIFERASE INFECTION ASSAY - IC50): < 5.00
38 | Cc1noc(CSc2nnc(Nc3ccc(OC(F)(F)F)cc3)s2)n1 | > 10 | – | pIC50 (HEPG2TOX_HILL_SLOPE 3.01, HEPG2TOX_R_SQUARED 0.966, PBLUC_HILL_SLOPE 1.72, PBLUC_R_SQUARED 0.424, read-out: LUCIFERASE INFECTION ASSAY - IC50): 5.35
39 | S=c1[nH]nc(-c2cccnc2Oc2ccccc2)n1-c1ccc(Cl)c(Cl)c1 | > 7.95 | < 5.10 | –
40 | CCn1nc(C)c([N+](=O)[O-])c1C(=O)Sc1cccc(Br)c1 | > 8.91 | < 5.05 | –
41 | CCS(=O)(=O)c1ncc(Cl)c(C(=O)Nc2ccc(C(=O)OC)cc2)n1 | 4.66 | – | pIC50 (HEPG2TOX_HILL_SLOPE 3.26, HEPG2TOX_R_SQUARED 0.643, PBLUC_HILL_SLOPE 9.13, PBLUC_R_SQUARED 0.474, read-out: LUCIFERASE INFECTION ASSAY - IC50): 5.44
42 | O=c1c(Cl)c(Cl)cnn1Cc1nnc(-c2ccc(Cl)cc2)o1 | > 10 | – | pIC50 (FFLUC_HILL_SLOPE 3.65, FFLUC_R_SQUARED 0.9, HEPG2TOX_HILL_SLOPE 4.48, HEPG2TOX_R_SQUARED 0.522, PBLUC_HILL_SLOPE 7.32, PBLUC_R_SQUARED 0.182, read-out: LUCIFERASE INFECTION ASSAY - IC50): 5.13
43 | CCn1c(NC(=O)Cc2ccc(C)c(OC)c2)nc2ccccc21 | 8.25 | – | pIC50 (PBLUC_HILL_SLOPE 4.04, PBLUC_R_SQUARED 0.646, read-out: LUCIFERASE INFECTION ASSAY - IC50): 5.32
44 | O=C(Cn1ncc(Cl)c(Cl)c1=O)N(Cc1cccs1)c1ccc2c(c1)OCCO2 | > 10 | – | pIC50 (PBLUC_HILL_SLOPE 8.55, 0.379, PBLUC_R_SQUARED 0.113, 0.341, read-out: LUCIFERASE INFECTION ASSAY - IC50): 5.20
45 | CN(CC(=O)NC1CC1)C(=O)CNc1ccccc1Oc1ccccc1 | 4.68 | – | pIC50 (PBLUC_HILL_SLOPE 1.7, PBLUC_R_SQUARED 0.39, read-out: LUCIFERASE INFECTION ASSAY - IC50): 5.89
